Measured values as given in patent US12258327B2, “5-membered heteroaryl-containing aminopyridine compounds as EGFR inhibitors” (YUHAN CORPORATION, priority 2021, dated 2025).
Read-outs that look alike come from different tables or passages of the source.

What was measured:
[1] = target: EGFR del19/T790M/C797S (Homo sapiens, UniProt P00533, C797S/DEL746-750/T790M); assay: Biochemical EGFR kinase assay (Lance Ultra TR-FRET), triple mutant del19/T790M/C797S
In short: (§1)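 Step 1: compound in kinase buffer, 0.003–10 μM. Step 2: kinase reaction 1 h at room temperature. Step 4: TR-FRET read at 615/665 nm; IC50 calculated.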

[2] = target: EGFR L858R/T790M/C797S (Homo sapiens, UniProt P00533, C797S/L858R/T790M); assay: Biochemical EGFR kinase assay (Lance Ultra TR-FRET), triple mutant L858R/T790M/C797S
In short: as §1

[3] = target: EGFR del19/C797S (Homo sapiens, UniProt P00533, C797S/DEL746-750); assay: Biochemical EGFR kinase assay (Lance Ultra TR-FRET), double mutant del19/C797S
In short: as §1

[4] = target: EGFR L858R/C797S (Homo sapiens, UniProt P00533, C797S/L858R); assay: Biochemical EGFR kinase assay (Lance Ultra TR-FRET), double mutant L858R/C797S
In short: as §1

[5] = target: EGFR wildtype (WT) (Homo sapiens, UniProt P00533); assay: Biochemical EGFR kinase assay (Lance Ultra TR-FRET), wildtype
In short: as §1

[6] = IC50 del19/T790M/C797S (nM) 100 μM ATP, 100 μM ATP
[7] = Km ATP, read-out: IC50 del19/T790M/C797S (nM) Km ATP
[8] = IC50 L858R/T790M/C797S (nM) 100 μM ATP, 100 μM ATP
[9] = Km ATP, read-out: IC50 L858R/T790M/C797S (nM) Km ATP
[10] = IC50 del19/C797S (nM) 100 μM ATP, 100 μM ATP
[11] = Km ATP, read-out: IC50 del19/C797S (nM) Km ATP
[12] = IC50 L858R/C797S (nM) 100 μM ATP, 100 μM ATP
[13] = Km ATP, read-out: IC50 L858R/C797S (nM) Km ATP
[14] = IC50 WT (nM) 100 μM ATP, 100 μM ATP
[15] = Km ATP, read-out: IC50 WT (nM) Km ATP

Chain of EGFR L858R/C797S (P00533 25-1210 C797S/L858R): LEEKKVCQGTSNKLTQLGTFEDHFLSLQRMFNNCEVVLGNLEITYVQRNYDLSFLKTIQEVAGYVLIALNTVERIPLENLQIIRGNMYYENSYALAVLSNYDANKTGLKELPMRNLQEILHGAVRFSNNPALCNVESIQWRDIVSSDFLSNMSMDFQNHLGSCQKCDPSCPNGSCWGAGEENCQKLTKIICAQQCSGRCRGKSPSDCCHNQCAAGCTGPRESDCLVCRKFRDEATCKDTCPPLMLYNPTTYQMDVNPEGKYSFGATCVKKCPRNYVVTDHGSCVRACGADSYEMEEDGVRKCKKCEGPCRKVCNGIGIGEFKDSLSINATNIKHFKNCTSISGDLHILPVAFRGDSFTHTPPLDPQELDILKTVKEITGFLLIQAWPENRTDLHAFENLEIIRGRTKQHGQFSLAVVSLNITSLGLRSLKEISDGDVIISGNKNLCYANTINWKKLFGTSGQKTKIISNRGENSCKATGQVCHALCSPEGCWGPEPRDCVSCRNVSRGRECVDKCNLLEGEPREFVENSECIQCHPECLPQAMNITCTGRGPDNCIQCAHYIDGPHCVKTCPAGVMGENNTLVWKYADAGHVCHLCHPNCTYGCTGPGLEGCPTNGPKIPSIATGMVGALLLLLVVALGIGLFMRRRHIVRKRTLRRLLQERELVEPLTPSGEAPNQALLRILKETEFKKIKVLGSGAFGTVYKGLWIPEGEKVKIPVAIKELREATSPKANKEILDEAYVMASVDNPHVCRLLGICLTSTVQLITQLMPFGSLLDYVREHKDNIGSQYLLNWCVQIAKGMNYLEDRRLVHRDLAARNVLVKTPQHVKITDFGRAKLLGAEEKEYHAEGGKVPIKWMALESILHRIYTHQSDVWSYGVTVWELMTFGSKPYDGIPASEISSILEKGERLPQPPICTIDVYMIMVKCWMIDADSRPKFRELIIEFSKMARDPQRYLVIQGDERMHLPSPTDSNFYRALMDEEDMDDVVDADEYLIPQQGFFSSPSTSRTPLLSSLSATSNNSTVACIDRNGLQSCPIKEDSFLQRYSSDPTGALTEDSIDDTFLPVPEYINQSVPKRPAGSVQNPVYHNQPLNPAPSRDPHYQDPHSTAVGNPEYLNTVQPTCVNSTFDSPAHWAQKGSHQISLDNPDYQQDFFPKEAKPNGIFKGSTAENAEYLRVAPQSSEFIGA
Chain of EGFR del19/C797S (P00533 with tags, fused parts or gaps DEL746-750/C797S): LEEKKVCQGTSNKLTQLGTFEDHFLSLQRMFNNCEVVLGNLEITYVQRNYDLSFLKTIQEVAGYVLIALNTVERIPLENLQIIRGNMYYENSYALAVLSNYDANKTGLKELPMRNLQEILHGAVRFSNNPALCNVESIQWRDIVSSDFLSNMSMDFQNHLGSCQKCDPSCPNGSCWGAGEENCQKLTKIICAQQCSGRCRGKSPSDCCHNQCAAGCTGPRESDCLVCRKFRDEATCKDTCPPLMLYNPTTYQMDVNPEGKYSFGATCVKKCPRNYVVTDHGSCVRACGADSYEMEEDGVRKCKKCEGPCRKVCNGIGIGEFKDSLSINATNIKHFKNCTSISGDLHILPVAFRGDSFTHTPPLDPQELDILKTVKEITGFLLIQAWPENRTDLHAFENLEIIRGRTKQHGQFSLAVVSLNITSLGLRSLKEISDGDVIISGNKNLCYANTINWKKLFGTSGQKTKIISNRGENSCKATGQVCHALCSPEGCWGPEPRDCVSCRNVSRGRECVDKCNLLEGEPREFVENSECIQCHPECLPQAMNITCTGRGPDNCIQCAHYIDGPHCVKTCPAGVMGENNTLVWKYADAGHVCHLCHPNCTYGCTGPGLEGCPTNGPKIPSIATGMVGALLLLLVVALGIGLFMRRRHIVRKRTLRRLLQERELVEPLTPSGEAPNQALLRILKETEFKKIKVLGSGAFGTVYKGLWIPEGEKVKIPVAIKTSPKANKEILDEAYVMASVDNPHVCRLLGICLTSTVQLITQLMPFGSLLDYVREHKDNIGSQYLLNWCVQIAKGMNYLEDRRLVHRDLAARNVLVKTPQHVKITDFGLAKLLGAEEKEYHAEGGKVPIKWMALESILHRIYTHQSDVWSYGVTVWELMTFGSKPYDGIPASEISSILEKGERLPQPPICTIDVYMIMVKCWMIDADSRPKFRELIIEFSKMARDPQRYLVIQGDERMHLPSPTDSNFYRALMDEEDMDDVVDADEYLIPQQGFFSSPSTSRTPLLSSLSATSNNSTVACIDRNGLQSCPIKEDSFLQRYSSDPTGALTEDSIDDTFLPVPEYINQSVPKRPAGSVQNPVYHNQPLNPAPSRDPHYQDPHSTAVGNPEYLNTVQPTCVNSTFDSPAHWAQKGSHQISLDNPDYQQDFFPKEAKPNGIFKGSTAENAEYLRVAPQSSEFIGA
Chain of EGFR L858R/T790M/C797S (P00533 25-1210 T790M/C797S/L858R): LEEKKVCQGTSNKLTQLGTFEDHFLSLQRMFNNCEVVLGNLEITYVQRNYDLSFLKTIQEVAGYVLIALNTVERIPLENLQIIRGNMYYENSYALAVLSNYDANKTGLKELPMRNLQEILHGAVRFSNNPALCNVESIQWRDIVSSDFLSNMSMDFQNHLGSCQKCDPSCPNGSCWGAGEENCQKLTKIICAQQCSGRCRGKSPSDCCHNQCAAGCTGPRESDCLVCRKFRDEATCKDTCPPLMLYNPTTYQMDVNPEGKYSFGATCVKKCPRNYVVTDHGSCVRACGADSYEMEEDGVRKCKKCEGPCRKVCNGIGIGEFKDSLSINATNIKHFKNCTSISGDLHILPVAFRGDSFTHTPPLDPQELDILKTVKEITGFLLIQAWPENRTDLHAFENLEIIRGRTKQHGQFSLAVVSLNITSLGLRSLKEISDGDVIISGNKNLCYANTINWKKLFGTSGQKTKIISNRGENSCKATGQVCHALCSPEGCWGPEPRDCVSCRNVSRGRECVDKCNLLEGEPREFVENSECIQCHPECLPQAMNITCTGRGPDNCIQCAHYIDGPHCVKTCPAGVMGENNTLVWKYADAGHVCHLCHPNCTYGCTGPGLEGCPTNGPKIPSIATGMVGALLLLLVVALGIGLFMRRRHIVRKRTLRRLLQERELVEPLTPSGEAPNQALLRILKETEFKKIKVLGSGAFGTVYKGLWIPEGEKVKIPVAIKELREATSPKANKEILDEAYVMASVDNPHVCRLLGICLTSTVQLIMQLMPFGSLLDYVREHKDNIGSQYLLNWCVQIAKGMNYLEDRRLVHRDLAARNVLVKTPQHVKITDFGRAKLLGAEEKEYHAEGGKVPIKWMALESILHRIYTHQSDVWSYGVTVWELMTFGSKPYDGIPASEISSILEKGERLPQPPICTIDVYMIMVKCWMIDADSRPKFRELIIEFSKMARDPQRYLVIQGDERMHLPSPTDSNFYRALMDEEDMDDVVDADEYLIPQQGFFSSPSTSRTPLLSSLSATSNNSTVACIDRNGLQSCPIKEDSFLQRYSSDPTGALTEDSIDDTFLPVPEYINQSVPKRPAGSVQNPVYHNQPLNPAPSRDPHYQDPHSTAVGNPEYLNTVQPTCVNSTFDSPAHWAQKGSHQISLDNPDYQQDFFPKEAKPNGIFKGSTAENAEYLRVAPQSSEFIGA
Chain of EGFR wildtype (WT) (P00533 25-1210): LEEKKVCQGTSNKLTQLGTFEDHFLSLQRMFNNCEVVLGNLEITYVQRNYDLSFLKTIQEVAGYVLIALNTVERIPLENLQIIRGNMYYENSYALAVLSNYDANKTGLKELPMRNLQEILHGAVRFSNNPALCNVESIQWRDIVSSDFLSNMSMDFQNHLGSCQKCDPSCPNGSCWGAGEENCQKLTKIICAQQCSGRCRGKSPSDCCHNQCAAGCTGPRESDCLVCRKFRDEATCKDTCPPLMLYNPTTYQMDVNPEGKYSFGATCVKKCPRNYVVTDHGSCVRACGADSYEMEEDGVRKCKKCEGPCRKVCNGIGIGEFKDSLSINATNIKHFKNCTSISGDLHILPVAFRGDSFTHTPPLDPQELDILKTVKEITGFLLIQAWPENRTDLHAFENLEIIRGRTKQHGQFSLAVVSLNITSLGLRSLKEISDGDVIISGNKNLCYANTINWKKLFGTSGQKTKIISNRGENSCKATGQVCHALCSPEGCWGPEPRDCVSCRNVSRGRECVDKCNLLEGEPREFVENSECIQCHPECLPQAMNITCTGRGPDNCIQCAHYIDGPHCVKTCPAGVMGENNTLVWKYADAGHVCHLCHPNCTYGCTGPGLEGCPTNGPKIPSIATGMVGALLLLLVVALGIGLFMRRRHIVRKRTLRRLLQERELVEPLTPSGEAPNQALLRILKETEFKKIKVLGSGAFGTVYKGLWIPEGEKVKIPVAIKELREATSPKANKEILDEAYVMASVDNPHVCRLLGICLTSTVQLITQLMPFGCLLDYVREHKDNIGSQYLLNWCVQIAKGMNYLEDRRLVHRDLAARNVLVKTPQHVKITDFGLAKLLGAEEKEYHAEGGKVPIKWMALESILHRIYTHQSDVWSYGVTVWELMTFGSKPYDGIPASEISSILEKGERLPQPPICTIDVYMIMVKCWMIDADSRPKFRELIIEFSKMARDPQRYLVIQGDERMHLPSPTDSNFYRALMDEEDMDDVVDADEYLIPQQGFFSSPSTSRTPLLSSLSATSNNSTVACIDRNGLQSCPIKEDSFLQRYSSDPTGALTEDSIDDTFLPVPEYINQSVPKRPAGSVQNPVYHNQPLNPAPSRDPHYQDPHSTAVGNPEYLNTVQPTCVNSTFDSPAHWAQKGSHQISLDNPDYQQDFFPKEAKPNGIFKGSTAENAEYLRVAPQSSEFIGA

| SMILES | IC50 ([1]; read-out: IC50 del19/T790M/C797S (nM) 100 μM ATP, 100 μM ATP) | IC50 ([2]; read-out: IC50 L858R/T790M/C797S (nM) 100 μM ATP, 100 μM ATP) | IC50 ([3]; read-out: IC50 del19/C797S (nM) 100 μM ATP, 100 μM ATP) | IC50 ([4]; read-out: IC50 L858R/C797S (nM) 100 μM ATP, 100 μM ATP) | IC50 ([5]; read-out: IC50 WT (nM) 100 μM ATP, 100 μM ATP) | IC50 [1, 6] | IC50 [1, 7] | IC50 [2, 8] | IC50 [2, 9] | IC50 [3, 10] | IC50 [3, 11] | IC50 [4, 12] | IC50 [4, 13] | IC50 [5, 14] | IC50 [5, 15] | IC50 ([1]; Km ATP, read-out: IC50 del19/T790M/C797S, Km ATP) | IC50 ([2]; Km ATP, read-out: IC50 L858R/T790M/C797S, Km ATP) | IC50 ([3]; Km ATP, read-out: IC50 del19/C797S, Km ATP) | IC50 ([4]; Km ATP, read-out: IC50 L858R/C797S, Km ATP) | IC50 ([5]; Km ATP, read-out: IC50 WT, Km ATP) |
| --- | --- | --- | --- | --- | --- | --- | --- | --- | --- | --- | --- | --- | --- | --- | --- | --- | --- | --- | --- | --- |
| CN[C@H]1CC[C@@H](Nc2cc(Nc3ccnc(-c4cnn(S(=O)(=O)C5CC5)c4)n3)ncc2-c2ccn(C(C)C)n2)CC1 [Example 86, N^2-(2-(1-(Cyclopropylsulfonyl)-1H-pyrazol-4-yl)pyrimidin-4-yl)-5-(1-isopropyl-1H-pyrazol-3-yl)-N^4-((1s,4s)-4-(methylamino)cyclohexyl)pyridine-2,4-diamine] | 0.2 nM | 0.3 nM | 3.2 nM | 14.8 nM | 8510 nM |  |  |  |  |  |  |  |  |  |  |  |  |  |  |  |
| Cn1nc(-c2cnc(Nc3ccnc(-c4cnn(S(=O)(=O)C5CC5)c4)n3)cc2N[C@H]2CCC[C@H](CO)C2)cc1C(F)(F)F [Example 260, ((1S,3S)-3-((2-((2-(1-(Cyclopropylsulfonyl)-1H-pyrazol-4-yl)pyrimidin-4-yl)amino)-5-(1-methyl-5-(trifluoromethyl)-1H-pyrazol-3-yl)pyridin-4-yl)amino)cyclohexyl)methanol] |  |  |  |  |  | 9.8 nM | 8.6 nM | 4.3 nM | 3.8 nM | 8.7 nM | 5 nM | 59.9 nM | 2.7 nM | 5230 nM | 27.1 nM |  |  |  |  |  |
| Cn1nc(-c2cnc(Nc3ccnc(-c4cnn(S(=O)(=O)C5CC5)c4)n3)cc2N[C@H]2CC[C@@H](CO)CC2)cc1C(F)(F)F [Example 253, ((1s,4s)-4-((2-((2-(1-(Cyclopropylsulfonyl)-1H-pyrazol-4-yl)pyrimidin-4-yl)amino)-5-(1-methyl-5-(trifluoromethyl)-1H-pyrazol-3-yl)pyridin-4-yl)amino)cyclohexyl)methanol] |  |  |  |  |  | 1.1 nM |  | 2.1 nM | 0.9 nM | 3.2 nM | 2.3 nM | 10.6 nM | 7 nM | 618 nM | 3.4 nM |  |  |  |  |  |
| Cn1nc(-c2cnc(Nc3ccnc(-c4cnn(CC(F)F)c4)n3)cc2NN2CCC(O)CC2)cc1C(F)(F)F [Example 163, 1-((2-((2-(1-(2,2-Difluoroethyl)-1H-pyrazol-4-yl)pyrimidin-4-yl)amino)-5-(1-methyl-5-(trifluoromethyl)-1H-pyrazol-3-yl)pyridin-4-yl)amino)piperidin-4-ol] |  |  |  |  |  |  | 1.8 nM |  | 0.9 nM |  | 55.3 nM |  | 744 nM |  | 737 nM |  |  |  |  |  |
| Cn1ccc(-c2cnc(Nc3ccnc(-c4cnn(S(=O)(=O)C5CC5)c4)n3)cc2NC[C@H]2CC[C@@H](O)C2)n1 [Example 118, (1R,3S)-3-(((2-((2-(1-(Cyclopropylsulfonyl)-1H-pyrazol-4-yl)pyrimidin-4-yl)amino)-5-(1-methyl-1H-pyrazol-3-yl)pyridin-4-yl)amino)methyl)cyclopentan-1-ol] |  |  |  |  |  | 0.2 nM | 0.2 nM | 0.3 nM | 0.1 nM | 0.2 nM | 0.3 nM | 3.6 nM | 0.2 nM | 1320 nM | 4.9 nM |  |  |  |  |  |
| CN(C)C[C@H]1C[C@H](CNc2cc(Nc3ccnc(-c4cnn(S(=O)(=O)C5CC5)c4)n3)ncc2-c2ccn(C)n2)C1 [Example 239, N^2-(2-(1-(Cyclopropylsulfonyl)-1H-pyrazol-4-yl)pyrimidin-4-yl)-N^4-(((1r,3r)-3-((dimethylamino)methyl)cyclobutyl)methyl)-5-(1-methyl-1H-pyrazol-3-yl)pyridine-2,4-diamine] |  |  |  |  |  |  | 0.3 nM |  | 0.1 nM |  | 4.6 nM |  | 3.6 nM |  | 10.1 nM |  |  |  |  |  |
| CC(O)C(C)(C)Nc1cc(Nc2ccnc(-c3cnn(S(=O)(=O)C4CC4)c3)n2)ncc1-c1ccn(C(F)F)n1 (stereo not shown) [Example 7, 3-((2-((2-(1-(Cyclopropylsulfonyl)-1H-pyrazol-4-yl)pyrimidin-4-yl)amino)-5-(1-(difluoromethyl)-1H-pyrazol-3-yl)pyridin-4-yl)amino)-3-methylbutan-2-ol] |  |  |  |  |  | 2.6 nM |  | 6 nM |  | 281 nM |  | 246 nM |  | > 10000 nM |  |  |  |  |  |  |
| O=S(=O)(C1CC1)n1cc(-c2cc(Nc3ncc(-c4ccn(CC(F)(F)F)n4)c(N[C@H]4CC[C@@H](F)CC4)n3)ccn2)cn1 [Example 366, N^2-(2-(1-(Cyclopropylsulfonyl)-1H-pyrazol-4-yl)pyridin-4-yl)-N^4-((1s,4s)-4-fluorocyclohexyl)-5-(1-(2,2,2-trifluoroethyl)-1H-pyrazol-3-yl)pyrimidine-2,4-diamine] |  |  |  |  |  |  |  |  |  |  |  |  |  |  |  | 8.5 nM | 3.1 nM | 249 nM | 127 nM | 3320 nM |
| C[C@]1(O)CC[C@@H](Nc2cc(Nc3ccnc(-c4cnn(S(=O)(=O)C5CC5)c4)n3)ncc2-c2ccn(C3CC3)n2)CC1 [Example 290, (1s,4s)-4-((5-(1-Cyclopropyl-1H-pyrazol-3-yl)-2-((2-(1-(cyclopropylsulfonyl)-1H-pyrazol-4-yl)pyrimidin-4-yl)amino)pyridin-4-yl)amino)-1-methylcyclohexan-1-ol] |  |  |  |  |  | 0.1 nM | 0.1 nM | 0.2 nM | 0.1 nM | 0.5 nM | 0.2 nM | 3.4 nM | 0.3 nM | 2500 nM | 2 nM |  |  |  |  |  |
| C[C@]1(O)CC[C@@H](Nc2cc(Nc3ccnc(-c4cnn(S(=O)(=O)C5CC5)c4)n3)ncc2-c2ccn(CC(F)F)n2)CC1 [Example 241, (1s,4s)-4-((2-((2-(1-(Cyclopropylsulfonyl)-1H-pyrazol-4-yl)pyrimidin-4-yl)amino)-5-(1-(2,2-difluoroethyl)-1H-pyrazol-3-yl)pyridin-4-yl)amino)-1-methylcyclohexan-1-ol] |  |  |  |  |  | 0.6 nM | 0.5 nM | 0.7 nM | 0.3 nM | 0.5 nM | 0.5 nM |  | 0.5 nM | 2980 nM | 5 nM |  |  |  |  |  |
| O=C1CC[C@]2(CC[C@H](Nc3cc(Nc4ccnc(-c5cnn(S(=O)(=O)C6CC6)c5)n4)ncc3-c3csc(C(F)(F)F)n3)CC2)N1 [Example 52, (5s,8s)-8-((2-((2-(1-(Cyclopropylsulfonyl)-1H-pyrazol-4-yl)pyrimidin-4-yl)amino)-5-(2-(trifluoromethyl)thiazol-4-yl)pyridin-4-yl)amino)-1-azaspiro[4.5]decan-2-one] |  |  |  |  |  | 0.6 nM | 0.6 nM | 0.6 nM | 0.4 nM | 0.8 nM | 1.3 nM | 10 nM | 1.6 nM | > 10000 nM | 18 nM |  |  |  |  |  |
| CC(Nc1cc(Nc2ccnc(-c3cnn(S(=O)(=O)C4CC4)c3)n2)ncc1-c1ccn(C(F)F)n1)C(F)F (stereo not shown) [Example 213, N^2-(2-(1-(Cyclopropylsulfonyl)-1H-pyrazol-4-yl)pyrimidin-4-yl)-5-(1-(difluoromethyl)-1H-pyrazol-3-yl)-N^4-(1,1-difluoropropan-2-yl)pyridine-2,4-diamine] |  |  |  |  |  |  | 3.4 nM |  | 2.7 nM |  | 370 nM |  | 123 nM |  | 488 nM |  |  |  |  |  |
